The results in this text go back to patent publication US9133099B2, “Compounds and their salts specific to the PPAR receptors and the EGF receptors and their use in the medical field” (Nogra Pharma Limited, priority 2005, dated 2015).

The structures appear in SMILES notation.

The target of assay [1] is T1, PPARγ (Homo sapiens, UniProt P37231).
T1 construct: transient transfections of epithelial cells with the renilla luciferase and PPRE plamids; endogenous in cells; host or cells: HT-29 human colon carcinoma cells
T1 sequence (P37231 1-505): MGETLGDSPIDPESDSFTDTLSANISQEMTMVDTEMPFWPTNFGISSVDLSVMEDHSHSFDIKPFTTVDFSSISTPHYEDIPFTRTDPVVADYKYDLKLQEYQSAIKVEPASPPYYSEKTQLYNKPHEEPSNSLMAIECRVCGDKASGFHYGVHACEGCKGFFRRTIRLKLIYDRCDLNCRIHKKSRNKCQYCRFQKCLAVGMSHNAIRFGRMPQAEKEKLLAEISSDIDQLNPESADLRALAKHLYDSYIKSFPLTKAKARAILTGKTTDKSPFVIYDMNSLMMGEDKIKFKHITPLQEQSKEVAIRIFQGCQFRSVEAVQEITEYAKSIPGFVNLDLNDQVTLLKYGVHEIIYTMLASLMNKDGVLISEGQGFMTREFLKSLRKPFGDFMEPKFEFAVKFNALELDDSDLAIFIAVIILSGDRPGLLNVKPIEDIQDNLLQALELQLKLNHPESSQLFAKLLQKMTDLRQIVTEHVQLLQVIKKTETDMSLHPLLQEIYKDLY
Briefly: PPARγ transcriptional activity, renilla luciferase/PPRE reporter gene in transfected HT-29 cells. Format: cell-based. The conditions noted are these: 24 hours. How it is done: Activation of PPARγ results in a cascade of reactions leading to a binding to specific DNA sequence elements termed peroxisome proliferator response elements (PPRE) (7-9).
We investigated PPARγ transcriptional activity by transient transfections of epithelial cells with the renilla luciferase and PPRE plamids. To evaluate if the new molecules have more efficacy than 5-ASA to stimulate PPARγ activation, we tested these molecules at a concentration of 1 mM. […] Cells were stimulated with the different molecules during 24 hours.
FIG. 2 represents all the results obtained for each molecule assessed in 2 or 3 experiments done in triplicate. Reproducibility between the different experiments is good and similar to data described in the literature.
(Reporter assays use an easily measured gene product as a stand-in for the process of interest.)

Assay [2] deals with DLD-1 cells. Briefly: Colon cancer cell growth, BrdU incorporation, DLD-1 cells. Format: cell-based, human. As to conditions: for effect on cell growth at high doses (in words) / inhibition at 10000 µM: 10 mM; for effect on cell growth at high doses (in words): differences among groups not statistically significant; for inhibition at 500 µM / inhibition at 1000 µM / inhibition at 2500 µM / inhibition at 5000 µM / inhibition at 10000 µM: Homo sapiens, BrdU; for inhibition at 500 µM: 0.5 mM; for inhibition at 500 µM / inhibition at 1000 µM / inhibition at 2500 µM / inhibition at 5000 µM / inhibition at 10000 µM / effect on cell growth (in words): DLD-1 cells, 48 hours; for inhibition at 1000 µM: 1 mM; for inhibition at 2500 µM: 2.5 mM; for inhibition at 5000 µM: 5 mM; for effect on cell growth (in words): 0.5-10 mM. As for the experimental part:
The following substances (i e 20, 34, 35, 39 and 40) were tested for their ability to modulate colon cancer cell growth. For this purpose, three human colon carcinoma cell lines (i.e. HT-29, HT-115 and DLD-1) were used. These cell types were selected on the basis of the cyclooxigenase-2 (COX-2) expression. Indeed. HT-115 cells express a biologically active COX-2, HT-29 cells express a non-functional COX-2 isoform, and DLD-1 are COX-2-deficient cells.
HT-29 and DLD-1 cells were cultured in McCoy and RPMI1640 media respectively, supplemented with 10% fetal bovine serum (FBS), 1% penicillin/streptomycin (P/S) and […] gentamycin. HT-115 were cultured in DMEM medium supplemented with 15% FBS and 1% P/S. Cells were maintained in a humidified Incubator at 37° C., in the presence of 5% CO2.
For cell growth assays, single-cell suspensions were plated at 2×10^3 cells/well (4×10^3 cells/well for HT115) in 96-well culture dishes in medium containing 0.5% FBS and allowed to adhere. The non-adherent cells were then removed, and fresh medium containing 0.5% FBS was added into each well. Cells were cultured in the presence or absence of the specified substances. Each substance was dissolved as a 25 mM stock solution in culture medium containing 0.5% FBS, and the pH of each stock solution was adjusted to 7.4, if necessary, with NaOH. Substances were used at a final concentration ranging from 0.5 to 10 mM.
Cell proliferation was determined by measuring the incorporation of 5-bromo-2′-deoxyuridine (BrdU) into DNA using a commercially available cell proliferation kit (Roche Diagnostics, Monza, Italy). BrdU was added to the cell cultures during the last 6 hours of incubation, and the level of BrdU-positive cells was assessed after 48 h culture by enzyme-linked immunosorbent assay (ELISA). Optical density (OD) was determined at 450 nm using an ELISA reader. Experiments were performed in triplicate and the results are reported as the mean t standard deviation (SD).
Cells were cultured in the presence or absence of the compounds, and cell growth was then assessed by the colorimetric (BrdU) assay after 48 hours culture.

In assay [3] the test system is HT-115 cells. Briefly: Colon cancer cell growth, BrdU incorporation, HT-115 cells. The conditions noted are these: 0.5-10 mM, 48 hours. Format: cell-based, human. How it is done: (§1) FIG. 3 and FIG. 4: Effect of the specified substances on the proliferation of human colon carcinoma cell lines (i.e. HT29, HT 115 and DLDI). Cells were treated with increasing concentrations of substances (0.5-10 mM)) for 48 hours and the proliferation was determined by using a colorimetric assay for the measurement of BrdU incorporation. Optical density (OD) was determined at 450 nm using an ELISA reader.
(§2) The following substances (i e 20, 34, 35, 39 and 40) were tested for their ability to modulate colon cancer cell growth. For this purpose, three human colon carcinoma cell lines (i.e. HT-29, HT-115 and DLD-1) were used. These cell types were selected on the basis of the cyclooxigenase-2 (COX-2) expression. Indeed. HT-115 cells express a biologically active COX-2, HT-29 cells express a non-functional COX-2 isoform, and DLD-1 are COX-2-deficient cells. […]
(§3) Cell proliferation was determined by measuring the incorporation of 5-bromo-2′-deoxyuridine (BrdU) into DNA using a commercially available cell proliferation kit (Roche Diagnostics, Monza, Italy). BrdU was added to the cell cultures during the last 6 hours of incubation, and the level of BrdU-positive cells was assessed after 48 h culture by enzyme-linked immunosorbent assay (ELISA). Optical density (OD) was determined at 450 nm using an ELISA reader. […]

In assay [4] the test system is HT-29 cells. As to the kind of experiment: Colon cancer cell growth, BrdU incorporation, HT-29 cells. The conditions noted are these: 0.5-10 mM, 48 hours. Format: cell-based, human. How it is done: as §1, §2, §3
(In general: Dividing cells build labelled thymidine or BrdU into new DNA.)

On to `Nc1ccc(O)c(C(=O)O)c1` [Compound 5-ASA, 5-amino salicylic acid, reference compound], for which the “increase of the reporter gene activity (PPARγ activity)” value (“increase of the reporter gene activity” for short) in assay [1] (30 mM, positive control) was found to be 2.8±0.7 fold.
On to `COC(Cc1ccc(N)cc1)C(=O)O` (racemic) [Compound 34, (±)-2-methoxy-3-(4′-aminophenyl)-propionic acid], for which, in assay [1] (1 mM), the “increase of the reporter gene activity” value is listed as 4.8±0.71 fold. Also, in assay [2], the “effect on cell growth at high doses (in words)” value is listed as “slightly reduced the cell growth”, the inhibition (usually the percentage by which the read-out fell short of the control) at 500 µM amounted to 0%, at 1000 µM the inhibition was 3.6% and at 2500 µM the inhibition was 1.8%. In assay [2], this molecule registered an inhibition at 5000 µM of 3.6% and an inhibition at 10000 µM of 15.1%.
Consider `CCOC(Cc1cccc(N)c1)C(=O)O` (racemic) [Compound 40, (±)-2-ethoxy-3-(3′-aminophenyl)-propanoic acid], for which, in assay [1] (1 mM), the “increase of the reporter gene activity” value came out at 3.4±0.97 fold. In addition, in assay [2], the “effect on cell growth (in words)” value is “no inhibition in cell growth”, at 500 µM the inhibition was 2%, the inhibition at 1000 µM worked out at 0% and the inhibition at 2500 µM stood at 0%. In assay [2], this molecule registered an inhibition at 5000 µM of 0% and an inhibition at 10000 µM of 2.7%.
Take `Nc1cccc(CC(O)C(=O)O)c1` (racemic) [Compound 20, (±)-2-hydroxy-3-(3′-aminophenyl)-propanoic acid]: in assay [3], the “effect on cell growth (in words)” value was “marked anti-proliferative effect in a dose-dependent fashion”. In addition, the “effect on cell growth (in words)” value in assay [4] was “marked anti-proliferative effect in a dose-dependent fashion”. In addition, in assay [2], the “effect on cell growth (in words)” value is on record as “marked anti-proliferative effect in a dose-dependent fashion”, the inhibition at 500 µM was found to be 4.3%, the inhibition at 1000 µM came to 12.8% and the inhibition at 2500 µM was 16.2%. In addition, in assay [2], testing at 5000 µM gave an inhibition of 25.6% and at 10000 µM the inhibition was 47%. Besides, the “significance of cell growth inhibition (in words)” value in assay [2] (final concentration of 5 or 10 mM, cell line not specified) was “significantly inhibit cell growth”.
In the case of `COC(Cc1cccc(N)c1)C(=O)O` (racemic) [Compound 35, (±)-2-methoxy-3-(3′-aminophenyl)-propionic acid], the “increase of the reporter gene activity” value in assay [1] (1 mM) was found to be 2.64±0.40 fold. Also, in assay [2], the “effect on cell growth (in words)” value is “no inhibition in cell growth”, 500 µM produced 0% inhibition, testing at 1000 µM gave an inhibition of 3.2% and the inhibition at 2500 µM was 1.6%. In assay [2], this molecule gave an inhibition at 5000 µM of 6.4% and an inhibition at 10000 µM of 4.8%.
With `CCOC(Cc1ccc(N)cc1)C(=O)O` (racemic) [Compound 39, (±)-2-ethoxy 3-(4′-aminophenyl)-propionic acid], the “increase of the reporter gene activity” value in assay [1] (1 mM) was 2.73±0.31 fold. In addition, in assay [2], the “effect on cell growth at high doses (in words)” value is “slightly reduced the cell growth”, the inhibition at 500 µM is 1.6%, 1000 µM produced 3.3% inhibition and 2500 µM produced 8.2% inhibition. Moreover, in assay [2], the inhibition at 5000 µM is 11.5% and at 10000 µM the inhibition was 12.8%.
